Test [1] has as its system normal human fibroblasts. In words: Glutathione (GSH) content in fibroblasts under menadione stress. The class given is cell-based. The note with it: 10 mM, 24 h; Menadione 25 μM 4 h. How it is done: Normal human fibroblasts were treated for 24 hours with 0.001% and 0.005% dm holy basil extract obtained according to Example 1 or with the antioxidant reference, 10 mM NAC. Oxidative stress was then induced by 4-hour incubation in the presence of 25 μM menadione. GSH stock was monitored using the fluorescent probe Monochlorobimane (Mbi); intracellular fluorescence, proportional to the amount of GSH, was measured.

In test [2] the test system is normal human keratinocytes. In words: Menadione-induced ROS production in keratinocytes. The class given is cell-based. The note with it: 10 mM, 24 h, Menadione 50 μM. How it is done:
(§1) Normal human keratinocytes, on the one hand, and normal human fibroblasts, on the other, were treated for 24 hours with the 0.001% and 0.005% dry matter (dm) holy basil extract obtained according to Example 1 or with 10 mM N-Acetyl Cysteine (NAC), a ROS scavenger molecule used as an antioxidant reference. […] ROS were labeled with the CellRox® probe; intracellular fluorescence, proportional to the amount of ROS, was measured. Results were statistically analyzed using a one-factor ANOVA, followed by a Dunnett's test.

The test system of test [3] is normal human fibroblasts. In words: Menadione-induced ROS production in fibroblasts. The class given is cell-based. The note with it: 10 mM, 24 h, Menadione 200 μM. The method, then:
as §1

Test [4] has as its system normal human epidermal keratinocytes. In words: γH2AX expression (DNA double-strand breaks) in keratinocytes under camptothecin stress. The note with it: reference, 24 h pre-incubation; camptothecin 1 h. The class given is cell-based. How it is done:
Normal human epidermal keratinocytes were pre-incubated for 24 hours in the presence of the holy basil extract obtained in Example 1 at 0.001% and 0.005% dm or the reference nicotinamide, prior to 1-hour exposure to camptothecin. Camptothecin is a genotoxic compound, a toposiomerase I inhibitor, used for the induction of DNA double-strand breaks. Double-strand breaks were detected by immunostaining of γH2AX (phosphorylation of histone H2AX which intervenes early in response to double-strand breaks) and quantified by image analysis. Results were statistically analyzed using an ANOVA followed by a Tukey test.

The subject of test [5] is normal human keratinocytes. In words: H2O2-induced ROS production in normal human keratinocytes. It counts as cell-based. The following applies: 24 h, H2O2 100 μM 20 min. The method, then: Quercetin at 10 μM or Vitamin C at 500 μM, before incorporation of the H2DCF-DA probe. Keratinocytes were then stimulated with 100 μM hydrogen peroxide (H2O2) for 20 minutes. ROS production was assessed by measuring the fluorescence emitted by the probe on contact with ROS. Results were statistically analyzed using a one-way ANOVA followed by a Tukey test.

The test system of test [6] is normal human epidermal keratinocytes. In words: Aquaporin-3 production in keratinocytes (immunostaining). The class given is cell-based. The following applies: reference, 24 h. How it is done:
Normal human epidermal keratinocytes were incubated for 24 hours in the presence of the holy basil extract obtained in Example 1 at 0.001% and 0.005% dm or retinoic acid, positive reference. Aquaporin-3 expression was assessed by immunostaining and quantified by image analysis.

A further test concerns reconstructed epidermis. In words: IL1α produced by PMA-stimulated reconstructed epidermis. It counts as cell-based, human. The following applies: systemic, 24 h pre-incubation, PMA 0.5 μg/ml 24 h. The method, then: […] After 24 hours pre-incubation, the epidermis was stimulated with 0.5 μg/mL PMA and incubated again for 24 hours.
Culture supernatants were collected, an IL1α assay was performed on the one hand and, on the other, these supernatants (conditioned media) were plated onto cultures of normal human dermal fibroblasts.
Results were statistically analyzed using an ANOVA followed by a Tukey test.

For test [7], the system named is normal human keratinocytes. In words: IL8 produced by keratinocytes under PMA-induced inflammatory stress (ELISA). The class given is cell-based. The following applies: 24 h pre-incubation, PMA 10 μg/ml 24 h. How it is done:
Normal human keratinocytes were pre-incubated for 24 hours in the presence of holy basil extract obtained according to Example 1 at 0.001%, 0.005% or 0.01% dm or dexamethasone at 0.1 μM, an anti-inflammatory reference. The cells were then stimulated by 24-hour treatment in the presence of 10 μg/mL PMA (Phorbol-Myristate-Acetate).
At the end of treatment, the IL8 produced was quantified by ELISA assay in the culture supernatants.
Results were analyzed statistically using the Student t-test.
(An ELISA detects its analyte on a solid surface through an enzyme-linked reagent.)

In test [8] the test system is normal human dermal fibroblasts. In words: Gene expression of dermal matrix markers in fibroblasts (qPCR). It counts as cell-based. The note with it: 5 ng/ml, 48 h. The method, then: Normal human dermal fibroblasts were incubated for 48 hours in the presence of holy basil extract obtained according to Example 1 at 0.001% and 0.005% dm or TGFβ1 at 5 ng/ml, the positive assay reference.
Gene expression of Collagen I, Elastin, Dermatopontin and MMP1 (Matrix-Metalloproteinase-1) was assessed by real-time quantitative PCR.
Results were statistically analyzed using a one-factor analysis of variance (ANOVA), followed by a Dunnett's post-test.
In general terms: Quantitative PCR measures a nucleic acid by following its amplification.

Test [9] concerns normal human fibroblasts. In words: Lipid peroxidation in fibroblasts under cumene hydroperoxide stress. It counts as cell-based. The following applies: 200 μM, 24 h, Cumene 50 μM. The method, then: (§2) Normal human keratinocytes, on the one hand, and normal human fibroblasts, on the other, were treated for 24 hours with the 0.001% and 0.005% dm holy basil extract obtained according to example 1 or with the antioxidant reference, vitamin E at 200 μM. Oxidative stress was then induced by incubation for 1 hour in the presence of cumene hydroperoxide at 200 or 50 μM.
(§3) Results were statistically analyzed using a one-way ANOVA followed by a Tukey test.

In test [10] the test system is normal human keratinocytes. In words: Lipid peroxidation in keratinocytes under cumene hydroperoxide stress. The class given is cell-based. The note with it: 200 μM, 24 h, Cumene 200 μM. The method, then: as §2, §3

As to `CC(=O)N[C@@H](CS)C(=O)O` [NAC, N-Acetyl Cysteine], the “GSH (Arbitrary units)” value with normal human fibroblasts [1] is given as 4997.7 ± 947.2 Arbitrary units. In addition, in the test with normal human fibroblasts [1], the “Increase of GSH” value stood at 44%. Further, the “ROS (Arbitrary units)” value is on record as 2490 ± 94.3 Arbitrary units in test [2] and 3114 ± 14.2 Arbitrary units in the test with normal human fibroblasts [3]. Further, the inhibition at 10000 µM in test [2] (Homo sapiens, Keratinocyte) was 100%; with normal human fibroblasts [3] (Homo sapiens, Fibroblast) it was 50%.
As to `NC(=O)c1cccnc1` [Nicotinamide, nicotinamide], in test [4], the “Inhibition of γH2AX expression” value is given as −106% and the “γH2AX, Cy5 (Intensity)” value is given as 3052.8 Intensity.
`O=c1c(O)c(-c2ccc(O)c(O)c2)oc2cc(O)cc(O)c12` [Quercetin]: the “ROS (Fluorescence units)” value in test [5] (10 μM) is given as 17453.8 ± 2880.6 Fluorescence units. Besides, in test [5] (Homo sapiens, Keratinocyte, 10 μM), the inhibition at 10 µM was 85%.
Regarding `CC1=C(/C=C/C(C)=C/C=C/C(C)=C/C(=O)O)C(C)(C)CCC1` [Retinoic acid, retinoic acid], in test [6], the “Aquaporin-3 (% of positive cells)” value is listed as 0.323 ± 0.004 % of positive cells and the “Increase of Aquaporin-3” value is reported as “+45%”.
For the compound `O=C1O[C@H]([C@@H](O)CO)C(O)=C1O` [Vitamin C], the “ROS (Fluorescence units)” value in test [5] (500 μM) was determined as 7165.2 ± 586.2 Fluorescence units. The inhibition at 500 µM in test [5] (Homo sapiens, Keratinocyte, 500 μM) was 102%.
As for `C[C@@H]1C[C@H]2[C@@H]3CCC4=CC(=O)C=C[C@]4(C)[C@@]3(F)[C@@H](O)C[C@]2(C)[C@@]1(O)C(=O)CO` [dexamethasone], in the test with reconstructed epidermis (10 μM), the “Interleukine-1 alpha” value stood at 334 ± 41 pg/mL. For the same compound, in the test with reconstructed epidermis (Homo sapiens, read-out: Inhibition of IL1α release), the inhibition at 10 µM was found to be 48%. In addition, in [7] (0.1 μM), the “IL8” value came out at 4194.4 ± 814.1 pg/mL. The inhibition at 0.1 µM in test [7] (Homo sapiens, Keratinocyte, read-out: Inhibition of IL8 production) was found to be 40%.
Turning to “TGFB1: TGFβ1 at 5 ng/ml, the positive assay reference”, in [8], the “Collagen I gene expression (Relative quantity)” value is reported as 10.86 ± 4.17, the “Dermatopontin gene expression (Relative quantity)” value came to 43.17 ± 5.97, the “Elastin gene expression (Relative quantity)” value is listed as 67.5 ± 20.55 and the “MMP1 gene expression (Relative quantity)” value was determined as 0.33 ± 0.13. Also, in test [8] (vs control cells), the “Collagen I gene expression (% of induction)” value is “+786%”, the “Dermatopontin gene expression (% of induction)” value is “+5001%”, the “Elastin gene expression (% of induction)” value is recorded as “+8148%” and the “MMP1 gene expression (% of induction)” value was −65%.
Regarding vitamin E, in the test with normal human fibroblasts [9], the “Inhibition of lipid peroxidation” value stood at 71% and the “Peroxidized lipids (Arbitrary units)” value is 11413.4 ± 69.4 Arbitrary units. In addition, in [10], the “Inhibition of lipid peroxidation” value is listed as 93% and the “Peroxidized lipids (Arbitrary units)” value worked out at 4485.3 ± 43.3 Arbitrary units.

What is called inhibition is the relative decrease from the control value, in per cent.

These data come from patent US20240091294A1, “Extract of Top Growth of Holy Basil, and Cosmetic or Dermatological Compositions Containing Same” (Laboratoires Expanscience, priority 2021, published 2024).
